Measured values reported in ChEMBL document CHEMBL5620403, “Design, synthesis, activity and molecular dynamics studies of 1,3,4-thiadiazole derivatives as selective allosteric inhibitors of SHP2 for the treatment of cancer” (Eur J Med Chem, 2023).
The source made the active and inactive calls. No cut-off for these calls is given here.

Assays:
MV4-11 [1] = experiment: Induction of apoptosis in human MV4-11 cells assessed as necrotic cells at 5 uM measured after 4 hrs by Annexin V-FITC/7-AAD staining based flow cytometric analysis (reference value: 0.041%); format: functional
[2] = biological target: Tyrosine-protein phosphatase non-receptor type 11 (Homo sapiens, UniProt Q06124, E76K); experiment: Inhibition of full length recombinant human SHP2 E76K mutant (1 to 525 residues) using DIPMUP as substrate preincubated for 30 mins followed by substrate addition and measured after 30 mins by fluorescence based analysis
Sequence of Tyrosine-protein phosphatase non-receptor type 11 (Homo sapiens, UniProt Q06124, E76K) (Q06124 2-593 E76K limits assumed): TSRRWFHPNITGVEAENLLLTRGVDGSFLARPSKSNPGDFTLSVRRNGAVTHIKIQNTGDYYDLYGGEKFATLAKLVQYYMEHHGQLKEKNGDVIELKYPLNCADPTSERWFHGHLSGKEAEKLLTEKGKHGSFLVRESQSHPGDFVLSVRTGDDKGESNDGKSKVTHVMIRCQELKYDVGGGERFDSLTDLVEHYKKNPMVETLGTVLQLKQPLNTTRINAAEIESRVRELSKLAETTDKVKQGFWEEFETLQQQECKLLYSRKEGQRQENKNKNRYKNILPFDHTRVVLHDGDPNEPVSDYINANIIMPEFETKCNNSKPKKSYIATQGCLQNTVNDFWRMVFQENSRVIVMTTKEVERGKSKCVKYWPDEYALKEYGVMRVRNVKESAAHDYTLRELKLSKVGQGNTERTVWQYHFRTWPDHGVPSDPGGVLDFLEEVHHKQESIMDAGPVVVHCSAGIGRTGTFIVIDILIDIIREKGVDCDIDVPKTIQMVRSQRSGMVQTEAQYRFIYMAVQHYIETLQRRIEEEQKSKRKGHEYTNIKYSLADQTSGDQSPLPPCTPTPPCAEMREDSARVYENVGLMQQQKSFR

[3] = biological target: T1, Tyrosine-protein phosphatase non-receptor type 11 (Homo sapiens, UniProt Q06124); experiment: Inhibition of recombinant human SHP2 PTPase activity (219 to 525 residues) using DIPMUP as substrate preincubated for 30 mins followed by substrate addition and measured after 30 mins by fluorescence based analysis
T1 sequence (Q06124 whole entry): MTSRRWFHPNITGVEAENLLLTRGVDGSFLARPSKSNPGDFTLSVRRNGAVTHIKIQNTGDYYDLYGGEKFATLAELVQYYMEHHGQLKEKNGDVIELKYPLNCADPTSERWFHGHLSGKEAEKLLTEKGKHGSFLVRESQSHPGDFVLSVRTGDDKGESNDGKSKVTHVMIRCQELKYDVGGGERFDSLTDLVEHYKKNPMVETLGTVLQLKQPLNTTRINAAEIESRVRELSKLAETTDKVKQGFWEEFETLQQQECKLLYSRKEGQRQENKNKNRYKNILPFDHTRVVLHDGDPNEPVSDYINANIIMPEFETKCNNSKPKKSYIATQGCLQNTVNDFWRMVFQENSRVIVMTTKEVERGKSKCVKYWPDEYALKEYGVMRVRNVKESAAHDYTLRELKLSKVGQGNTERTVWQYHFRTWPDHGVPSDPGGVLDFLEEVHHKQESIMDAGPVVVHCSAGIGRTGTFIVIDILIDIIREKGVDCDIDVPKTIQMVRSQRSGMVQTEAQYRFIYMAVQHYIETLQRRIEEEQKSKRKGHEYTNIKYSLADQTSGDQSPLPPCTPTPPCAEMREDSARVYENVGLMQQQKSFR

MV4-11 [4] = experiment: Induction of apoptosis in human MV4-11 cells assessed as necrotic cells at 2.5 uM measured after 4 hrs by Annexin V-FITC/7-AAD staining based flow cytometric analysis (reference value: 0.041%); format: functional
MV4-11 [5] = experiment: Induction of apoptosis in human MV4-11 cells assessed as necrotic cells at 5 uM measured after 2 hrs by Annexin V-FITC/7-AAD staining based flow cytometric analysis (reference value: 0.068%); format: functional
MV4-11 [6] = experiment: Induction of apoptosis in human MV4-11 cells assessed as late apoptotic cells at 5 uM measured after 2 hrs by Annexin V-FITC/7-AAD staining based flow cytometric analysis (reference value: 0.98%); format: functional
MV4-11 [7] = experiment: Induction of apoptosis in human MV4-11 cells assessed as late apoptotic cells at 2.5 uM measured after 4 hrs by Annexin V-FITC/7-AAD staining based flow cytometric analysis (reference value: 1.58%); format: functional
MV4-11 [8] = experiment: Induction of apoptosis in human MV4-11 cells assessed as late apoptotic cells at 5 uM measured after 1 hrs by Annexin V-FITC/7-AAD staining based flow cytometric analysis (reference value: 0.98%); format: functional
MV4-11 [9] = experiment: Induction of apoptosis in human MV4-11 cells assessed as late apoptotic cells at 5 uM measured after 4 hrs by Annexin V-FITC/7-AAD staining based flow cytometric analysis (reference value: 1.58%); format: functional
MV4-11 [10] = experiment: Induction of apoptosis in human MV4-11 cells assessed as early apoptotic cells at 2.5 uM measured after 4 hrs by Annexin V-FITC/7-AAD staining based flow cytometric analysis (reference value: 2.48%); format: functional
[11] = biological target: T2, Tyrosine-protein phosphatase non-receptor type 11 (Homo sapiens) (UniProt Q06124); experiment: Inhibition of SHP2 in human MV4-11 cells assessed as reduction in Erk1/2 phosphorylation level at upto 20 uM measured after 4 hrs by Western blot analysis; format: cell-based
T2 sequence (whole entry): T1 sequence (Q06124 whole entry)

[12] = biological target: T1, Tyrosine-protein phosphatase non-receptor type 11; experiment: Inhibition of full length wild type recombinant human SHP2 (1 to 525 residues) using DIPMUP as substrate preincubated for 30 mins followed by substrate addition and measured after 30 mins by fluorescence based analysis
[13] = biological target: T2, Tyrosine-protein phosphatase non-receptor type 11 (Homo sapiens); experiment: Inhibition of SHP2 in human MV4-11 cells assessed as reduction in Akt phosphorylation level at upto 20 uM measured after 4 hrs by Western blot analysis; format: cell-based
MV4-11 [14] = experiment: Induction of apoptosis in human MV4-11 cells assessed as viable cells at 2.5 uM measured after 4 hrs by Annexin V-FITC/7-AAD staining based flow cytometric analysis (reference value: 95.9%); format: functional; conditions: read-out: Activity
MV4-11 [15] = experiment: Induction of apoptosis in human MV4-11 cells assessed as viable cells at 5 uM measured after 4 hrs by Annexin V-FITC/7-AAD staining based flow cytometric analysis (reference value: 96.8%); format: functional; conditions: read-out: Activity
MV4-11 [16] = experiment: Induction of apoptosis in human MV4-11 cells assessed as late apoptotic cells at 1.25 uM measured after 4 hrs by Annexin V-FITC/7-AAD staining based flow cytometric analysis (reference value: 1.58%); format: functional
MV4-11 [17] = experiment: Induction of apoptosis in human MV4-11 cells assessed as early apoptotic cells at 5 uM measured after 2 hrs by Annexin V-FITC/7-AAD staining based flow cytometric analysis (reference value: 2.13%); format: functional
MDA-MB-468 = experiment: Antiproliferative activity against human MDA-MB-468 cells assessed as inhibition of cell growth measured after 72 hrs by CCK8 method; format: functional, cell-based; conditions: MDA-MB-468, 72 h
[18] = biological target: T2, Tyrosine-protein phosphatase non-receptor type 11 (Homo sapiens); experiment: Inhibition of SHP2 in human NCI-H358 cells assessed as reduction in Erk1/2 phosphorylation level at upto 20 uM measured after 8 hrs by Western blot analysis; format: cell-based
[19] = biological target: T1, Tyrosine-protein phosphatase non-receptor type 11; experiment: Inhibition of full length wild type recombinant human IRS-1 peptide activated SHP2 (1 to 525 residues) using DIPMUP as substrate preincubated for 30 mins followed by substrate addition and measured after 30 mins by fluorescence based analysis
MV4-11 [20] = experiment: Induction of apoptosis in human MV4-11 cells assessed as necrotic cells at 1.25 uM measured after 4 hrs by Annexin V-FITC/7-AAD staining based flow cytometric analysis (reference value: 0.041%); format: functional
MV4-11 [21] = experiment: Antiproliferative activity against human MV4-11 cells assessed as inhibition of cell growth measured after 72 hrs by CCK8 method; format: functional, cell-based; conditions: MV4-11, 72 h
MV4-11 [22] = experiment: Induction of apoptosis in human MV4-11 cells assessed as early apoptotic cells at 1.25 uM measured after 4 hrs by Annexin V-FITC/7-AAD staining based flow cytometric analysis (reference value: 2.48%); format: functional
[23] = biological target: T2, Tyrosine-protein phosphatase non-receptor type 11 (Homo sapiens); experiment: Inhibition of SHP2 in human NCI-H358 cells assessed as reduction in Akt phosphorylation level at upto 20 uM measured after 8 hrs by Western blot analysis; format: cell-based
MV4-11 [24] = experiment: Induction of apoptosis in human MV4-11 cells assessed as viable cells at 1.25 uM measured after 4 hrs by Annexin V-FITC/7-AAD staining based flow cytometric analysis (reference value: 95.9%); format: functional; conditions: read-out: Activity
[25] = Inhibition of full length recombinant human SHP2 E76A mutant (1 to 525 residues) using DIPMUP as substrate preincubated for 30 mins followed by substrate addition and measured after 30 mins by fluorescence based analysis

SMILES: C[C@@H]1OCC2(CCN(c3nnc(Sc4cccc(Cl)c4Cl)s3)CC2)[C@@H]1N
- Activity (MV4-11 [1]): 1.55%
- IC50 [2]: 6.88 µM
- IC50 [3]: > 50 µM
- Activity (MV4-11 [4]): 0.076%
- Activity (MV4-11 [5]): 1.17%
- Activity (MV4-11 [6]): 7.03%
- Activity (MV4-11 [7]): 2.3%
- Activity (MV4-11 [8]): 4.39%
- Activity (MV4-11 [9]): 5.98%
- Activity (MV4-11 [10]): 2.09%
- inhibition [11]: Active
- IC50 [12]: 0.84 µM
- inhibition [13]: Active
- viability at 2.5 µM (MV4-11 [14]): 96.7%
- viability at 5 µM (MV4-11 [15]): 80%
- Activity (MV4-11 [16]): 1.93%
- Activity (MV4-11 [17]): 10.9%
- IC50 (MDA-MB-468): 14.6 µM
- inhibition [18]: Active
- IC50 [19]: 0.25 µM
- Activity (MV4-11 [20]): 0.12%
- IC50 (MV4-11 [21]): 3.85 µM
- Activity (MV4-11 [22]): 2.04%
- inhibition [23]: Active
- viability at 1.25 µM (MV4-11 [24]): 95.9%
- IC50 [25]: 1.38 µM
